Experimental data published in patent US9340549B2, “Oxazolidinone compounds and derivatives thereof” (priority 2012, dated 2016).
Like-named read-outs stand apart in the source and are kept apart here.

Tests used:
[1] = system: SW480 cells; assay: Colony formation assay; assay type: cell-based; details: Homo sapiens, read-out: SW480 Colony Inhibition IC50
Method: Colorectal cell lines grown under normal logarithmic growth conditions in 10% FBS were trypsinized, counted in a Vi-CELL Cell Viability Analyzer and diluted to 400 cells/mL in RPMI media containing 0.5% FBS. Cells were plated in 12 well plates using 0.5 mL of diluted cells for a total of 200 cells/well. Tankyrase inhibitors were diluted in RPMI (0.5% FBS) at 2× final concentration. Ten concentrations of compound were prepared starting at 20 μM and serially diluted by 2 fold and 0.5 mL of diluted compound was added to each well. The final concentration range tested was thus 10 μM down to 20 nM. Two additional wells per plate were treated with the vehicle control (0.1% DMSO). The cells were grown for 12 days with the media and the compounds changed at day 6. Colonies were visualized by fixing and staining with Crystal Violet dye diluted in 1× fixation solution (2% formaldehyde, 0.2%, glutaraldehyde in 1×PBS) for 30 minutes at room temperature. The plates were washed extensively and air dried. Images of plates were captured and the colony counts were performed using the Bioreader® (Biosys) reader.

[2] = system: 8×TCF promoter-driven Firefly luciferase (Wnt reporter) in HEK-293 cells; assay: 2H9-STF assay, Wnt ligand activated HEK-293 assay in WT APC cellular context; assay type: cell-based; details: Homo sapiens
Method: HEK-293 cells engineered with an 8×TCF promoter-driven Firefly (FF) luciferase gene (Wnt reporter) along with an SV40 promoter-driven Renilla (RN) luciferase gene (control reporter) were used to measure the potency of tankyrase compounds in the context of Wnt ligand activation in a wild-type (non-APC mutated) cellular background. The engineered HEK-293 cells were plated (25 μL) at a density of 40,000 cells/well in black, clear-bottom, 96-well View plates (PerkinElmer) in normal growth medium (DMEM with 10% FBS with no antibiotics). Tankyrase inhibitors (5 μL) were transferred to cells from a three-fold serially diluted compound plate. A 10-point dilution series was tested starting at a concentration (10 μM final concentration in assay). Column 6 contained only DMSO and served as the “HI” control. Cells and compounds were incubated together for 1 hour at 37° C. after which the Wnt3a ligand (pathway inducer) was added to all wells except column 12 which served as the “LO” control. Twenty microliters of diluted recombinant mouse Wnt3a (R & D Systems) was added to the cells for a final concentration of 200 ng/mL (5 nM which is the Wnt3a˜EC80) and the plates were incubated at 37° C. for 18 to 24 hours. The Dual-Glo Reagents (Promega) were added as directed by manufacturer to assay the FF and RN luciferase activity. Luciferase activity was measures using the EnVision multilabel plate reader (PerkinElmer).

[3] = target: 6×HIS-tankyrase 1 (1091-1325) (Homo sapiens (Human), UniProt O95271); assay: biochemical; assay type: biochemical; details: […] enzyme, 400 nM NAD, 60 minutes at room temperature; read-out: TNKS1 IP IC50
[4] = target: 6×HIS-tankyrase 2 (946-1162) (Homo sapiens (Human), UniProt Q9H2K2); assay: Tankyrase 2 biochemical assay (AlphaLisa, anti-PAR detection); details: 4 nM enzyme, 250 nM NAD; read-out: TNKS2 IP IC50
[5] = system: 8×TCF promoter-driven Firefly luciferase (Wnt reporter) in DLD-1 colorectal cells; assay: DLD-1-STF assay, constitutively activated Wnt pathway in mutant APC cancer cell context; assay type: cell-based; details: Homo sapiens; DLD-1 reporter cells, 40 to 48 hours; read-out: DLD1-STF-FF/RL * 100 IC50
Method: DLD-1-STF Assay. Constitutively Activated Wnt Pathway Assay in Mutant APC Cancer Cell Context
DLD-1 colorectal cells engineered with an 8×TCF promoter-driven Firefly (FF) luciferase gene (Wnt reporter) along with an EF1a promoter-driven Renilla (RN) luciferase gene (control reporter) were used to measure the potency of tankyrase compounds in the context of the constitutively activated Wnt pathway due to mutated APC in colorectal cancer cells. The engineered DLD-1 cells were plated (45 μL) at a density of 10,000 cells/well in black, clear-bottom, 96-well View plates (PerkinElmer) in normal growth medium (RPMI with 10% FBS with no antibiotics). Tankyrase inhibitors (5 μL) were transferred to cells from a three-fold serially diluted compound plate. A 10-point dilution series was tested starting at a concentration (10 μM final concentration in assay). Column 6 contained only DMSO and served as the “HI” control. […] The plates were incubated at 37° C. for 40 to 48 hours. The Dual-Glo Reagents (Promega) were added as directed by manufacturer to assay the FF and RN luciferase activity. Luciferase activity was measures using the EnVision multilabel plate reader (PerkinElmer).

[6] = system: Axin2 in SW480 cells; assay: cells; assay type: cell-based; details: Homo sapiens, SW480, 24 h, SW480 cells, 24 hours; read-out: Axin2 384 IF EC50 IP
Method in brief: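 SW480 cells treated 24 h at 37° C (0.5% DMSO final), fixed/permeabilized, immunostained for Axin2. ArrayScan imaging quantified ring-spot intensity; Axin2 accumulation expressed as percent of control, EC50 from concentration-response.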

[7] = system: total β-catenin in SW480 colorectal cells; assay: cells; assay type: cell-based; details: Homo sapiens; SW480 cells, 40 to 48 hours, top concentration 10 μM; read-out: SW480-Total β-Catenin IC50 IP
Method in brief: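 SW480 cells in growth medium (MEM alpha, 10% heat-inactivated FBS, 10 mM HEPES) treated with a 10-point, 3-fold dilution series of TNKS inhibitor for 40–48 h at 37 °C. Lysates run on an MSD sandwich immunoassay for total β-catenin, read by electrochemiluminescence.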

Sequence of 6×HIS-tankyrase 1 (1091-1325) (O95271 1091-1325): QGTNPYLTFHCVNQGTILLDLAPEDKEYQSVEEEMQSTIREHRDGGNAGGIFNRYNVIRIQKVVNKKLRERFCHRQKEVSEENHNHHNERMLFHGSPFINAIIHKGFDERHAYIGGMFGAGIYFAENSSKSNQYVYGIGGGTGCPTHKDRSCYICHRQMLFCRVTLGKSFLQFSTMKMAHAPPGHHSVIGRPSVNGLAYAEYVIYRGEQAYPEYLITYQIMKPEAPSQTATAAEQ
Sequence of 6×HIS-tankyrase 2 (946-1162) (Q9H2K2 946-1162): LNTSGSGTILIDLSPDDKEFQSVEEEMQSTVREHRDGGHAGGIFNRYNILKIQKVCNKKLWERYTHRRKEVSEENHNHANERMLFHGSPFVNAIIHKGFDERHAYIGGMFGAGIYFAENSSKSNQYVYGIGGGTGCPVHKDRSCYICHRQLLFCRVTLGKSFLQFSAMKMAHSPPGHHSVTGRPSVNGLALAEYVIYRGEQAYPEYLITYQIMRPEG

Row | SMILES | IC50 ([1]; SW480, 288 h) [nM] | IC50 ([2]; HEK293, read-out: 2H9-Wnt3a-STF-FF/RL * 100 IC50) [nM] | IC50 ([1]; 288 h, SW480, 0.5% FBS, 12 days) [nM] | IC50 ([2]; HEK293, HEK-293 reporter cells, 200 ng/mL mouse Wnt3a, 18 to 24 hours, read-out: 2H9-Wnt3a-STF-FF/RL * 100 IC50) [nM] | IC50 [3] [nM] | IC50 [4] [nM] | IC50 [5] [nM] | EC50 [6] [nM] | IC50 [7] [nM]
1 | CC1(C)OC(=O)N([C@H]2CC[C@H](NC(=O)c3cccc4cccnc34)CC2)[C@H]1c1ccccc1 [Example 26, N-((1S,4r)-4-((S)-5,5-dimethyl-2-oxo-4-phenyloxazolidin-3-yl)cyclohexyl)quinoline-8-carboxamide] | 1300 | 55 | – | – | – | – | – | – | –
2 | CC1(C)OC(=O)N(c2ccc(-c3cnc(N)c(-c4ncccn4)c3)cc2)[C@H]1c1ccccc1 [Example 65, (S)-3-(4-(6-amino-5-(pyrimidin-2-yl)pyridin-3-yl)phenyl)-5,5-dimethyl-4-phenyloxazolidin-2-one] | – | – | 1300 | 95.9 | 49 | 25.9 | 107 | 1440 | 233
